Reference: paper PMC8175350, “Drug repurposing screens identify chemical entities for the development of COVID-19 interventions” (Nature Communications, 2021)
“And” between values parts separate entries of the source, which are not always exact repeats. Identical values can stand only once. Like-named read-outs stand apart in the source and are kept apart here.

Columns and labels:
SARS-CoV-2 [1] = type: cell-based; conditions: 72 hpi
HeLa-ACE2 cells [2] = experiment: cells; type: cell-based, human; conditions: Homo sapiens, HeLa-ACE2; read-out: HeLa-ACE2 TOA cell count EC50 GeoMean
SARS-CoV-2 [3] = experiment: Golden Syrian hamster SARS-CoV-2 efficacy model, body weight; type: in vivo; conditions: for group average % of starting weight: day 5 of infection
Calu-3 cells [4] = experiment: cells; conditions: Homo sapiens
[5] = Uninfected HeLa-ACE2 24 h live/dead cytotoxicity counter screen; type: cell-based, human; conditions: human, uninfected HeLa-ACE2 cells, detail block; read-out: HeLa-ACE2 uninfected cytotoxicity CC50 GeoMean
HeLa-ACE2 cells [6] = experiment: as above; type: cell-based, human; conditions: HeLa-ACE2; concentration log[M] -8.59517; replicates
in vitro [7] = conditions: human
HeLa-ACE2 cells [8] = experiment: cells; conditions: Homo sapiens
[9] = Pharmacokinetic studies in Syrian hamsters, PO; type: in vivo; conditions: male, Syrian, hamster, in vivo
Procedure: Pharmacokinetic studies were conducted at Scripps Research Institute’s Animal Models Core in accordance with IACUC guidelines (IACUC Protocol #09-0004-5). Eight-week-old male Syrian Hamsters (Charles River; three per group) were dosed PO as indicated for each compound and formulation. Plasma concentration of each test article was monitored up to 48 h. Nelfinavir was formulated in 10% DMSO/90% corn oil and MK-4482 was formulated in 10% PEG400/2.5% Cremaphor RH40 for both pharmacokinetic and efficacy studies.

in vitro [10] = conditions: human, Calu-3 uninfected cytotoxicity CC50 GeoMean
SARS-CoV-2 [11] = experiment: Hamster lung viral titer by plaque assay, day 5; type: in vivo, Golden Syrian hamster; conditions: for SARS-CoV-2 viral load in lung by plaque quantification, individual animals: values look like log10
SARS-CoV-2 [12] = experiment: microbe, parasite or virus in culture; type: cell-based
SARS-CoV-2 [13] = experiment: microbe, parasite or virus in culture; type: cell-based; conditions: for %infected: Calu-3, replicates n=1, n=2
SARS-CoV-2 [14] = experiment: Hamster lung RNA-Seq analysis; type: in vivo, Golden Syrian hamster; conditions: 500 mg/kg
SARS-CoV-2 [15] = experiment: microbe, parasite or virus in culture; type: cell-based; remark: listed apart in the source
in vitro [16] = conditions: human; remark: listed apart in the source
SARS-CoV-2 [17] = experiment: Hamster lung histopathology/infiltrate quantification (H&E, ImageJ); type: in vivo, Golden Syrian hamster; conditions: 500 mg/kg
From the text: ImageJ (V1.53) software is used to quantify H&E-stained slide images (at ×20 magnification). Images are first converted to 8-Bit (Image > Type > 8-Bit), their threshold is adjusted (Image > Adjust > Threshold), a threshold value between 70–80% is chosen to ensure only dark stained nuclei are detected. Following thresholding the image is converted to a mask (Process > Binary > Convert to Mask) and analyzed (Analyze > Analyze Particles) with default settings, adding display results and show outline and the output was exported into GraphPad Prism (V9.0.0) where the nonparametric, two-sided Mann–Whitney statistical test was used to calculate significance.

Calu-3 cells [18] = system: Calu-3 cells

CC(C)C(=O)OC[C@H]1O[C@@H](n2ccc(NO)nc2=O)[C@H](O)[C@@H]1O [MK-4482]
reduction in apical viral loads (SARS-CoV-2 [1]): > 1 log | EC50 (HeLa-ACE2 cells [2]): > 9.59 µM | group average % of starting weight (SARS-CoV-2 [3]; 50 mg/kg PO BID): 90% | Percent weight from day 0, individual animals (SARS-CoV-2 [3]; 50 mg/kg, Day 1): 100.619% and 100% and 99.9008% and 97.2408% and 100.231% | Percent weight from day 0, individual animals (SARS-CoV-2 [3]; 50 mg/kg, Day 2): 97.6006% and 97.2498% and 96.3294% and 93.8963% and 97.0023% | Percent weight from day 0, individual animals (SARS-CoV-2 [3]; 50 mg/kg, Day 3): 96.13% and 95.8747% and 93.0556% and 92.5585% and 94.3121% | Percent weight from day 0, individual animals (SARS-CoV-2 [3]; 50 mg/kg, Day 4): 94.4272% and 93.9649% and 89.1865% and 91.7224% and 90.8532% | Percent weight from day 0, individual animals (SARS-CoV-2 [3]; 50 mg/kg, Day 5): 93.4985% and 90.2215% and 86.4087% and 91.3043% and 88.9316% | group average % of starting weight (SARS-CoV-2 [3]; 150 mg/kg PO BID): 89% | Percent weight from day 0, individual animals (SARS-CoV-2 [3]; 150 mg/kg, Day 1): 99.3145% and 100.794% and 101.014% and 100.59% and 100.598% | Percent weight from day 0, individual animals (SARS-CoV-2 [3]; 150 mg/kg, Day 2): 97.0009% and 97.9349% and 97.6599% and 97.2199% and 98.281% | Percent weight from day 0, individual animals (SARS-CoV-2 [3]; 150 mg/kg, Day 3): 94.7729% and 96.1875% and 94.7738% and 95.7035% and 94.843% | Percent weight from day 0, individual animals (SARS-CoV-2 [3]; 150 mg/kg, Day 4): 92.1165% and 92.5338% and 92.3635% and 94.524% and 91.4798% | Percent weight from day 0, individual animals (SARS-CoV-2 [3]; 150 mg/kg, Day 5): 90.4884% and 88.2446% and 89.2356% and 90.9014% and 88.0419% | group average % of starting weight (SARS-CoV-2 [3]; 500 mg/kg PO BID): 97% | Percent weight from day 0, individual animals (SARS-CoV-2 [3]; 500 mg/kg, Day 1): 100.542% and 100.174% and 100.172% and 100.97% and 95.4962% | Percent weight from day 0, individual animals (SARS-CoV-2 [3]; 500 mg/kg, Day 2): 100.619% and 100.174% and 98.4483% and 98.806% and 95.246% | Percent weight from day 0, individual animals (SARS-CoV-2 [3]; 500 mg/kg, Day 3): 101.161% and 99.7394% and 97.8448% and 97.1642% and 96.9975% | Percent weight from day 0, individual animals (SARS-CoV-2 [3]; 500 mg/kg, Day 4): 100.774% and 99.5656% and 97.1552% and 94.5522% and 97.9983% | Percent weight from day 0, individual animals (SARS-CoV-2 [3]; 500 mg/kg, Day 5): 100.31% and 99.7394% and 95.9483% and 95.597% and 98.0817% | Emax (Calu-3 cells [4]; Calu-3, 48 h, read-out: Calu-3 cell count Sinf Average): 100% | EC50 (Calu-3 cells [4]; Calu-3, read-out: Calu-3 cell count EC50 GeoMean, detail block): > 9.98 µM | CC50 at 24 h [5]: > 39.8 µM | cytotox (HeLa-ACE2 cells [6]): -0.706 and -12.7385 and -12.928 and 0.5106 and 4.684 and -11.4286 and -5.289 and -2.8 and 6.41 | CC50 at 72 h (in vitro [7]): > 39.8 µM | Emax (HeLa-ACE2 cells [8]; HeLa-ACE2, 24 h, read-out: HeLa-ACE2 cell count Sinf Average): 100% | EC50 (HeLa-ACE2 cells [8]; HeLa-ACE2, read-out: HeLa-ACE2 cell count EC50 GeoMean, detail block): > 9.59 µM | Cl [9]: 401.00 mL/min/kg | CC50 at 48 h (in vitro [10]): > 29.9 µM | viral reduction (SARS-CoV-2 [11]; 50 mg/kg PO BID, compared to vehicle control): 99% | live viral titers in the lungs (SARS-CoV-2 [11]; 50 mg/kg PO BID, day 5, group average): 4.5 × 10^3 PFU/lung | SARS-CoV-2 viral load in lung by plaque quantification, individual animals (SARS-CoV-2 [11]; 50 mg/kg, day 5): 4.176 and 0 and 3.653 and 4.477 | live viral titers in the lungs (SARS-CoV-2 [11]; 150 mg/kg PO BID, day 5): undetectable | SARS-CoV-2 viral load in lung by plaque quantification, individual animals (SARS-CoV-2 [11]; 150 mg/kg, day 5): 0 | live viral titers in the lungs (SARS-CoV-2 [11]; 500 mg/kg PO BID, day 5): undetectable | SARS-CoV-2 viral load in lung by plaque quantification, individual animals (SARS-CoV-2 [11]; 500 mg/kg, day 5): 0 | TOA (SARS-CoV-2 [12]; HeLa-ACE2, log[M] -7.8551): 2.9089 and 4.102 and 5.064 | EC50 (SARS-CoV-2 [12]; Severe acute respiratory syndrome coronavirus 2, HeLa-ACE2, detail block, read-out: HeLa-ACE2 TOA CoV-2 EC50 GeoMean): > 9.59 µM | TOA:HeLa-ACE2 EC50 Ratio (SARS-CoV-2 [12]; TOA EC50 / HeLa-ACE2 SARS-CoV-2 EC50): 1.014 | %infected (SARS-CoV-2 [13]; concentration log[M] -5.00096): -32.7882% and -37.4837% and -33.6325% and -41.3774% and -26.9927% and -42.8416% | %infected (SARS-CoV-2 [13]; concentration log[M] -5.47808): -27.4805% and -3.693% and -9.149% and -11.3438% and 9.653% and -8.935% | %infected (SARS-CoV-2 [13]; concentration log[M] -6.08014): 23.1125% and 4.59% and 25.286% and 17.3454% and 15.2546% and 10.3832% | %infected (SARS-CoV-2 [13]; concentration log[M] -6.42922): 17.3493% and 17.6914% and 5.1734% and 5.136% and 26.2062% and 8.78% | %infected (SARS-CoV-2 [13]; concentration log[M] -6.90623): 7.3785% and 13.9122% and -0.1637% and 2.863% and 27.9695% and 13.9935% | %infected (SARS-CoV-2 [13]; concentration log[M] -7.50836): -8.777% and 19.9854% and 1.789% and 24.5386% and 23.5481% and -28.3332% | %infected (SARS-CoV-2 [13]; concentration log[M] -7.85886): 17.2433% and 32.9409% and -21.7492% and 16.4627% and 42.3108% and 21.6153% | %infected (SARS-CoV-2 [13]; concentration log[M] -8.33602): 11.8145% and 8.098% and -0.8953% and 19.1715% and 30.2349% and 22.7038% | Emax (SARS-CoV-2 [13]; Severe acute respiratory syndrome coronavirus 2, Calu-3, 48 h, curve plateau at infinite concentration, read-out: Calu-3 CoV-2 Sinf Average): 100% | EC50 (SARS-CoV-2 [13]; Severe acute respiratory syndrome coronavirus 2, Calu-3, detail block, read-out: Calu-3 CoV-2 EC50 GeoMean): > 9.98 µM | genes significantly down regulated vs infected vehicle-treated controls (DESeq2) (SARS-CoV-2 [14]): 66 genes | unsupervised hierarchical clustering of lung RNA-Seq samples (SARS-CoV-2 [14]): clustered together with uninfected samples | Emax (SARS-CoV-2 [15]; Severe acute respiratory syndrome coronavirus 2, HeLa-ACE2, 24 h, curve plateau at infinite concentration, read-out: HeLa-ACE2 CoV-2 Sinf Average): 100% | EC50 (SARS-CoV-2 [15]; Severe acute respiratory syndrome coronavirus 2, HeLa-ACE2, detail block, read-out: HeLa-ACE2 CoV-2 EC50 GeoMean): > 9.45 µM | HeLa-ACE2 SI (SARS-CoV-2 [15]; selectivity index, uninfected HeLa-ACE2 CC50 / SARS-CoV-2 EC50): > 4.21 | CC50 at 72 h (in vitro [16]): > 39.8 µM | histological examination of lungs (SARS-CoV-2 [17]): protected | abundance of cellularity and infiltrates in the lungs (ImageJ) (SARS-CoV-2 [17]; MK-4482-treated, Hamster 1-4, individual images): 2983 and 5397 and 4186 and 5390 and 1931 and 4673 and 3775 and 5624 and 2350 and 4146 and 3662 and 5094 and 4440 and 4933 and 3481 and 5058 and 2520 and 4471 and 3837 and 4151 and 2838 and 4738 and 3878 and 3011 and 2773 | uninfected Calu-3 CC50 (Calu-3 cells [18]): > 29.85 ×÷ 1 (n=2) μM | cytotox (Calu-3 cells [18]; human): -7.212
